# Measured values published in patent publication US10807992B2, “Single enantiomer antiparasitic compounds” (priority 2017, dated 2020).
# Like-named read-outs stand apart in the source and are kept apart here.
# Test system: Aedes aegypti
# Experiment: In vitro contact activity against adult mosquitoes (coated vial)
# Method: Aedes aegypti (Louisiana Biologicals Inc., New Orleans, La.) eggs were allowed to hatch, close, and age between 3-5 days in an environmental chamber at 26° C., 80% humidity with light/dark cycles.
# For mosquito assays, an aliquot from each compound stock was added to an acetone/triton solution to achieve the desired top doses for the study. Serial dilutions were conducted from the top dose (i.e. 50 ppm) to achieve the desired titration range for EC50 and EC90 determination. The final DMSO concentration in each test vial was 0.5%. A 459 μL aliquot of each compound formulation was transferred to a vial and vials were immediately placed on an unheated roller unit to allow for an even coating of the vial walls. The vials were loosely capped and allowed to dry for a minimum of four hours in a chemical fume hood.
# For both contact and ingestion assays, five female Aedes aegypti adults were added to each vial or cage. The test vials for contact assays were held in an environmental chamber at 24° C., 80% humidity with light/dark cycles (12 hours each). The cages for mosquito ingestion assays were held in a temperature-controlled artificial feeding apparatus to allow continual access to organic bovine blood containing the desired concentration of compound. Fresh aliquots of compound-spiked bovine blood were provided daily for the duration of the study.
# Mosquitoes showing no movement or mosquitoes that were knocked down were noted as dead. Results from trial 1 and trial 2 contact assays are shown in Tables 12 and 13, respectively and the results from trial 3 mosquito ingestion assay is shown in table 14.
# For the mosquito contact and ingestion assays, each replicate contained 5 mosquitoes. For ease of calculation, the two replicates were added to equal a total of 10 mosquitoes.
smiles,measurement,setting,value
"O=C(CC(F)(F)F)N1CC2(C1)OCc1cc(C3=NS[C@](c4cc(Cl)c(F)c(Cl)c4)(C(F)(F)F)C3)ccc12 [C1 (R) enantiomer, (R)-1-[6-[5-(3,5-dichloro-4-fluoro-phenyl)-5-(trifluoromethyl)-4H-isothiazol-3-yl]spiro[1H-isobenzofuran-3,3′-azetidine]-1′-yl]-3,3,3-trifluoro-propan-1-one]",mortality at 0.049 µM,"0.5 h, read-out: % Mortality R1 + R2, Trial 1, contact assay, dose 0.049 μM, 0.5 Hr",0%
same,mortality at 0.2 µM,"0.5 h, read-out: % Mortality R1 + R2, Trial 1, contact assay, dose 0.20 μM, 0.5 Hr",0%
same,mortality at 0.78 µM,"0.5 h, read-out: % Mortality R1 + R2, Trial 1, contact assay, dose 0.78 μM, 0.5 Hr",0%
same,mortality at 3.125 µM,"0.5 h, read-out: % Mortality R1 + R2, Trial 1, contact assay, dose 3.125 μM, 0.5 Hr",0%
same,mortality at 12.5 µM,"0.5 h, read-out: % Mortality R1 + R2, Trial 1, contact assay, dose 12.5 μM, 0.5 Hr",0%
same,mortality at 50 µM,"0.5 h, read-out: % Mortality R1 + R2, Trial 1, contact assay, dose 50 μM, 0.5 Hr",0%
same,mortality at 0.049 µM,"0.5 h, read-out: % Mortality R1 + R2, Trial 2, contact assay, dose 0.049 μM, 0.5 Hr",0%
same,mortality at 0.2 µM,"0.5 h, read-out: % Mortality R1 + R2, Trial 2, contact assay, dose 0.20 μM, 0.5 Hr",0%
same,mortality at 0.78 µM,"0.5 h, read-out: % Mortality R1 + R2, Trial 2, contact assay, dose 0.78 μM, 0.5 Hr",0%
same,mortality at 3.125 µM,"0.5 h, read-out: % Mortality R1 + R2, Trial 2, contact assay, dose 3.125 μM, 0.5 Hr",0%
same,mortality at 12.5 µM,"0.5 h, read-out: % Mortality R1 + R2, Trial 2, contact assay, dose 12.5 μM, 0.5 Hr",0%
same,mortality at 50 µM,"0.5 h, read-out: % Mortality R1 + R2, Trial 2, contact assay, dose 50 μM, 0.5 Hr",0%
same,mortality at 0.049 µM,"1 h, read-out: % Mortality R1 + R2, Trial 1, contact assay, dose 0.049 μM, 1 hr",0%
same,mortality at 0.2 µM,"1 h, read-out: % Mortality R1 + R2, Trial 1, contact assay, dose 0.20 μM, 1 hr",0%
same,mortality at 0.78 µM,"1 h, read-out: % Mortality R1 + R2, Trial 1, contact assay, dose 0.78 μM, 1 hr",0%
same,mortality at 3.125 µM,"1 h, read-out: % Mortality R1 + R2, Trial 1, contact assay, dose 3.125 μM, 1 hr",0%
same,mortality at 12.5 µM,"1 h, read-out: % Mortality R1 + R2, Trial 1, contact assay, dose 12.5 μM, 1 hr",0%
same,mortality at 50 µM,"1 h, read-out: % Mortality R1 + R2, Trial 1, contact assay, dose 50 μM, 1 hr",0%
same,mortality at 0.049 µM,"1 h, read-out: % Mortality R1 + R2, Trial 2, contact assay, dose 0.049 μM, 1 hr",0%
same,mortality at 0.2 µM,"1 h, read-out: % Mortality R1 + R2, Trial 2, contact assay, dose 0.20 μM, 1 hr",0%
same,mortality at 0.78 µM,"1 h, read-out: % Mortality R1 + R2, Trial 2, contact assay, dose 0.78 μM, 1 hr",0%
same,mortality at 3.125 µM,"1 h, read-out: % Mortality R1 + R2, Trial 2, contact assay, dose 3.125 μM, 1 hr",0%
same,mortality at 12.5 µM,"1 h, read-out: % Mortality R1 + R2, Trial 2, contact assay, dose 12.5 μM, 1 hr",0%
same,mortality at 50 µM,"1 h, read-out: % Mortality R1 + R2, Trial 2, contact assay, dose 50 μM, 1 hr",0%
same,mortality at 0.049 µM,"6 h, read-out: % Mortality R1 + R2, Trial 1, contact assay, dose 0.049 μM, 6 hr",0%
same,mortality at 0.2 µM,"6 h, read-out: % Mortality R1 + R2, Trial 1, contact assay, dose 0.20 μM, 6 hr",0%
same,mortality at 0.78 µM,"6 h, read-out: % Mortality R1 + R2, Trial 1, contact assay, dose 0.78 μM, 6 hr",0%
same,mortality at 3.125 µM,"6 h, read-out: % Mortality R1 + R2, Trial 1, contact assay, dose 3.125 μM, 6 hr",0%
same,mortality at 12.5 µM,"6 h, read-out: % Mortality R1 + R2, Trial 1, contact assay, dose 12.5 μM, 6 hr",0%
same,mortality at 50 µM,"6 h, read-out: % Mortality R1 + R2, Trial 1, contact assay, dose 50 μM, 6 hr",0%
same,mortality at 0.049 µM,"6 h, read-out: % Mortality R1 + R2, Trial 2, contact assay, dose 0.049 μM, 6 hr",0%
same,mortality at 0.2 µM,"6 h, read-out: % Mortality R1 + R2, Trial 2, contact assay, dose 0.20 μM, 6 hr",0%
same,mortality at 0.78 µM,"6 h, read-out: % Mortality R1 + R2, Trial 2, contact assay, dose 0.78 μM, 6 hr",0%
same,mortality at 3.125 µM,"6 h, read-out: % Mortality R1 + R2, Trial 2, contact assay, dose 3.125 μM, 6 hr",0%
same,mortality at 12.5 µM,"6 h, read-out: % Mortality R1 + R2, Trial 2, contact assay, dose 12.5 μM, 6 hr",0%
same,mortality at 50 µM,"6 h, read-out: % Mortality R1 + R2, Trial 2, contact assay, dose 50 μM, 6 hr",0%
same,mortality at 0.049 µM,"12 h, read-out: % Mortality R1 + R2, Trial 1, contact assay, dose 0.049 μM, 12 hr",0%
same,mortality at 0.2 µM,"12 h, read-out: % Mortality R1 + R2, Trial 1, contact assay, dose 0.20 μM, 12 hr",0%
same,mortality at 0.78 µM,"12 h, read-out: % Mortality R1 + R2, Trial 1, contact assay, dose 0.78 μM, 12 hr",0%
same,mortality at 3.125 µM,"12 h, read-out: % Mortality R1 + R2, Trial 1, contact assay, dose 3.125 μM, 12 hr",0%
same,mortality at 12.5 µM,"12 h, read-out: % Mortality R1 + R2, Trial 1, contact assay, dose 12.5 μM, 12 hr",0%
same,mortality at 50 µM,"12 h, read-out: % Mortality R1 + R2, Trial 1, contact assay, dose 50 μM, 12 hr",30%
same,mortality at 0.049 µM,"12 h, read-out: % Mortality R1 + R2, Trial 2, contact assay, dose 0.049 μM, 12 hr",0%
same,mortality at 0.2 µM,"12 h, read-out: % Mortality R1 + R2, Trial 2, contact assay, dose 0.20 μM, 12 hr",10%
same,mortality at 0.78 µM,"12 h, read-out: % Mortality R1 + R2, Trial 2, contact assay, dose 0.78 μM, 12 hr",10%
same,mortality at 3.125 µM,"12 h, read-out: % Mortality R1 + R2, Trial 2, contact assay, dose 3.125 μM, 12 hr",0%
same,mortality at 12.5 µM,"12 h, read-out: % Mortality R1 + R2, Trial 2, contact assay, dose 12.5 μM, 12 hr",0%
same,mortality at 50 µM,"12 h, read-out: % Mortality R1 + R2, Trial 2, contact assay, dose 50 μM, 12 hr",20%
same,mortality at 0.049 µM,"24 h, read-out: % Mortality R1 + R2, Trial 1, contact assay, dose 0.049 μM, 24 hr",0%
same,mortality at 0.2 µM,"24 h, read-out: % Mortality R1 + R2, Trial 1, contact assay, dose 0.20 μM, 24 hr",0%
same,mortality at 0.78 µM,"24 h, read-out: % Mortality R1 + R2, Trial 1, contact assay, dose 0.78 μM, 24 hr",0%
same,mortality at 3.125 µM,"24 h, read-out: % Mortality R1 + R2, Trial 1, contact assay, dose 3.125 μM, 24 hr",0%
same,mortality at 12.5 µM,"24 h, read-out: % Mortality R1 + R2, Trial 1, contact assay, dose 12.5 μM, 24 hr",0%
same,mortality at 50 µM,"24 h, read-out: % Mortality R1 + R2, Trial 1, contact assay, dose 50 μM, 24 hr",100%
same,mortality at 0.049 µM,"24 h, read-out: % Mortality R1 + R2, Trial 2, contact assay, dose 0.049 μM, 24 hr",0%
same,mortality at 0.2 µM,"24 h, read-out: % Mortality R1 + R2, Trial 2, contact assay, dose 0.20 μM, 24 hr",0%
same,mortality at 0.78 µM,"24 h, read-out: % Mortality R1 + R2, Trial 2, contact assay, dose 0.78 μM, 24 hr",10%
same,mortality at 3.125 µM,"24 h, read-out: % Mortality R1 + R2, Trial 2, contact assay, dose 3.125 μM, 24 hr",10%
same,mortality at 12.5 µM,"24 h, read-out: % Mortality R1 + R2, Trial 2, contact assay, dose 12.5 μM, 24 hr",60%
same,mortality at 50 µM,"24 h, read-out: % Mortality R1 + R2, Trial 2, contact assay, dose 50 μM, 24 hr",100%
same,mortality at 0.049 µM,"48 h, read-out: % Mortality R1 + R2, Trial 1, contact assay, dose 0.049 μM, 48 hr",10%
same,mortality at 0.2 µM,"48 h, read-out: % Mortality R1 + R2, Trial 1, contact assay, dose 0.20 μM, 48 hr",40%
same,mortality at 0.78 µM,"48 h, read-out: % Mortality R1 + R2, Trial 1, contact assay, dose 0.78 μM, 48 hr",20%
same,mortality at 3.125 µM,"48 h, read-out: % Mortality R1 + R2, Trial 1, contact assay, dose 3.125 μM, 48 hr",30%
same,mortality at 12.5 µM,"48 h, read-out: % Mortality R1 + R2, Trial 1, contact assay, dose 12.5 μM, 48 hr",50%
same,mortality at 50 µM,"48 h, read-out: % Mortality R1 + R2, Trial 1, contact assay, dose 50 μM, 48 hr",100%
same,mortality at 0.049 µM,"48 h, read-out: % Mortality R1 + R2, Trial 2, contact assay, dose 0.049 μM, 48 hr",20%
same,mortality at 0.2 µM,"48 h, read-out: % Mortality R1 + R2, Trial 2, contact assay, dose 0.20 μM, 48 hr",60%
same,mortality at 0.78 µM,"48 h, read-out: % Mortality R1 + R2, Trial 2, contact assay, dose 0.78 μM, 48 hr",10%
same,mortality at 3.125 µM,"48 h, read-out: % Mortality R1 + R2, Trial 2, contact assay, dose 3.125 μM, 48 hr",20%
same,mortality at 12.5 µM,"48 h, read-out: % Mortality R1 + R2, Trial 2, contact assay, dose 12.5 μM, 48 hr",100%
same,mortality at 50 µM,"48 h, read-out: % Mortality R1 + R2, Trial 2, contact assay, dose 50 μM, 48 hr",100%
